Results from PMC5059489, “Mechanistic evaluation and transcriptional signature of a glutathione S-transferase omega 1 inhibitor” (Nature Communications, 2016).
pIC50: −log10 of the molar value. “And” between values parts separate entries of the source, which are not always exact repeats. Identical values can stand only once. Like-named read-outs stand apart in the source and are kept apart here.

Experiments:
[1] = target: T1, GSTO1 (Homo sapiens, UniProt P78417); experiment: GSTO1 substrate assay (reduction of 4-NPG)
T1 sequence (P78417 1-241): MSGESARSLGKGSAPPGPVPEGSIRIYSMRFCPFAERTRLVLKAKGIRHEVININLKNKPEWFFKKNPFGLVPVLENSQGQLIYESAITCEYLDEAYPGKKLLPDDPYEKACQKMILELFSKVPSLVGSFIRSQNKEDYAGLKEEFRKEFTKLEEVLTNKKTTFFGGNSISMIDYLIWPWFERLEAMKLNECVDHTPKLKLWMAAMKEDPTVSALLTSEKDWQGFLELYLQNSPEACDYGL
Method: For activity screening, we adapted a GSTO1 substrate assay that relies on the quantification of the reduction of S-(4-nitrophenacyl)glutathione (4-NPG), a GSTO1-specific substrate[17], using recombinant human GSTO1 in a high-throughput screening format.
Enzyme activity was measured by monitoring the reduction of 4-NPG to 4-nitroacetophenone by GSTO1.

[2] = target: T1, GSTO1; experiment: In-gel fluorescence competitive CMFDA binding assay, recombinant GSTO1; settings: inhibition of CMFDA binding
Description: (§1) Primary screening of GSTO inhibitors was based on competitive inhibition of CMFDA binding to endogenous GSTO. Briefly, HCT116^p53+/+ cells (4 × 10^4 per well) were coated in a 12-well plate. […] Cells were then washed with PBS and lysed using Cell Lytic M buffer (Sigma). […] Gels were immediately scanned on a Typhoon variable mode imager (Amersham Bioscience). Quantification of fluorescent band intensity was done using Image Quant 5.2 software.

[3] = target: T2, endogenous GSTO1 (Homo sapiens, UniProt P78417); experiment: In-gel fluorescence competitive CMFDA binding assay, endogenous GSTO1 in HCT116; settings: 10 µM; inhibition of CMFDA binding, HCT116
T2 sequence (P78417 1-241): T1 sequence (P78417 1-241)
Description: as §1

[4] = system: HCT116p53+/+ cell; experiment: MTT cell proliferation at single concentration; type: cell-based, human
Method: Cell proliferation was assessed by a MTT assay. Cancer cells were seeded in 96-well microtitre plates and, after overnight attachment, treated with GSTO1 inhibitors. After 72 h, MTT solution (3 mg ml^−1; 20 μl) was added to each well and cells were incubated for 3 h at 37 °C. After incubation, media from each well was removed and the dark blue formazan crystals formed by live cells were dissolved in DMSO (150 μl per well). The absorbance intensity was measured at 570 nm on a microplate reader (Molecular Devices, Sunnyvale, CA, USA). Cell viability after 24 h treatment was assessed using ApoTox-Glo triplex assay (Promega) according to the manufacturer's protocol. At least three independent dose–response experiments with each concentration tested in triplicate were performed for each cell line.

[5] = read-out: GSTO substrate assay IC50, cluster screening tables

| Structure (SMILES) | GSTO substrate assay % Inhibition at 10 µM [1] [%] | GSTO binding assay (% Inhibition at 10 µM) Recombinant [2] [%] | GSTO binding assay (% Inhibition at 10 µM) Endogenous [3] [%] | pIC50 [1, 5] | pIC50 ([1]; Substrate assay IC50, pilot screening) | % Inhibition of HCT116p53+/+ cell proliferation at 10 µM [4] |
| --- | --- | --- | --- | --- | --- | --- |
| O=C(CCl)N1CCN(S(=O)(=O)c2ccc3c(c2)OCCO3)CC1 [C5-15] | 63.7 | 62.4 | – | 6.58 | – | 82.7% and 87.3% |
| O=C(CCl)NCC1(N2CCCCC2)CCCCC1 [C3-31] | 0.3 | -13.7 | 23.0 | – | – | – |
| O=C(CCl)Nc1c(Br)cc([N+](=O)[O-])cc1Br [C1-3] | -4.9 | 0.9 | 3.8 | – | – | – |
| Cc1c(-c2ccccc2)sc(NC(=O)CCl)c1C(=O)N1CCOCC1 [C2-15] | 87.8 | 63.2 | 74.2 | 6.44 | – | – |
| CN(C1CCCCC1)S(=O)(=O)c1ccc(NC(=O)CCl)cc1 [C1-25] | 9.8 | 70.3 | – | – | – | 11.3% and 21.7% |
| O=C(CCl)Nc1ccccc1N1CCOCC1 [C1-21] | -8.4 | 69.9 | 58.2 | – | – | – |
| O=C(CCl)NCc1ccccc1CN1CCOCC1 [C3-1] | 11.1 | 6.0 | 7.3 | – | – | – |
| Cc1ccc(CSCCNC(=O)CCl)cc1 [C3-15] | 5.1 | 35.7 | 86.9 | – | – | – |
| Cc1nn(Cc2ccccc2)c(C)c1CNC(=O)CCl [C3-30] | 83.1 | 10.6 | 14.5 | – | – | – |
| O=C(CCl)NCCN1C(=O)SC(=Cc2ccccc2F)C1=O [C3-32] | 12.5 | 23.6 | 53.1 | – | – | – |
| O=C(CCl)N1CCN(c2ncc(C(F)(F)F)cc2Cl)CC1 [C5-6] | 94.6 | 70.2 | – | 6.72 | – | 56.2% |
| CCOC(=O)c1c(-c2ccc(OC)c(OC)c2)csc1NC(=O)CCl [C2-12] | 3.4 | 74.9 | 59.8 | – | – | – |
| O=C(CCl)Nc1ccccc1NC(=O)CCl [4c] | – | – | – | – | 4.09 | – |
| CCOc1ccc(OCCNC(=O)CCl)cc1 [C3-13] | 62.6 | 25.1 | – | – | – | – |
| O=C(CCl)Nc1nc(-c2c[nH]c3ccccc23)cs1 [C2-25] | 3.7 | 75.7 | – | – | – | 0.5% and 4.3% |
| CCN(CC)c1ccc(S(=O)(=O)N2CCOCC2)cc1NC(=O)CCl [C1-32] | 84.2 | 4.4 | 48.2 | – | – | – |
| Cc1cc(C(C)(C)C)cc(C)c1NC(=O)CCl [C1-1] | 16.2 | 17.7 | – | – | – | 14% and 21.3% |
| O=C(CCl)N1CCC(Cc2ccccc2)CC1 [C5-1] | 83.5 | 67.5 | – | 7.32 | – | 93.4% |
| CCN(C(=O)CCl)C1CCS(=O)(=O)C1 (stereo not shown) [C4-4] | -0.8 | 5.9 | 17.0 | – | – | – |
| COC(=O)c1ccc(C(=O)OC)c(NC(=O)CCl)c1 [C1-8] | 100.9 | 61.2 | 56.5 | 5.25 | – | – |
| CC(C)c1ccc(C(NC(=O)CCl)C(C)C)cc1 (stereo not shown) [C3-6] | 56.2 | 53.7 | 51.3 | 5.10 | – | – |
| CCOc1ccc(/C=C/C2=Cc3c(sc(NC(=O)CCl)c3C#N)C(C)(C)C2)cc1 [C2-21] | 99.5 | 78.6 | 52.3 | 6.46 | – | – |

More lines, main results first:

| GSTO substrate assay % Inhibition at 10 µM [1] [%] | GSTO binding assay (% Inhibition at 10 µM) Recombinant [2] [%] | GSTO binding assay (% Inhibition at 10 µM) Endogenous [3] [%] | pIC50 [1, 5] | pIC50 ([1]; Substrate assay IC50, pilot screening) | Structure (SMILES) | % Inhibition of HCT116p53+/+ cell proliferation at 10 µM [4] |
| --- | --- | --- | --- | --- | --- | --- |
| -1.5 | 58.2 | 19.9 | – | – | CCOC(=O)c1sc(-c2ccccc2)cc1NC(=O)CCl [C2-11] | – |
| 14.2 | 4.5 | 18.7 | – | – | COCCN(C(=O)CCl)c1c(N)n(Cc2ccccc2)c(=O)[nH]c1=O [C4-18] | – |
| 72.3 | 29.2 | 58.8 | – | – | Cc1cc(C)c(NC(=O)CNC(=O)CCl)c(C)c1 [C3-24] | – |
| 91.8 | 61.2 | 60.9 | 6.30 | – | O=C(CCl)N1CCN(S(=O)(=O)c2ccc(F)c(F)c2)CC1 [C5-14] | – |
| 0.6 | 0.3 | 37.5 | – | – | O=C(CCl)NC(=O)c1cccc2ccccc12 [C3-18] | – |
| 91.3 | 43.8 | 78.6 | – | – | CCN(c1ccc(NC(=O)CCl)cc1)C(C)C [C1-15] | – |
| 69.5 | 68.2 | 42.2 | – | – | CCOC(=O)c1c(-c2ccccc2)csc1NC(=S)NC(=O)CCl [C3-26] | – |
| 91.1 | 68.3 | 39.6 | – | – | O=C(CCl)Nc1sc2c(c1C(=O)c1ccccc1)CCCC2 [C2-20] | – |
| 54.2 | 63.4 | 63.8 | 5.78 | – | Cc1cccc(NC(=S)NC(NC(=O)CCl)C(Cl)(Cl)Cl)c1 (stereo not shown) [C3-27] | – |
| 31.6 | -2.6 | – | – | – | COc1cc(OC)c(OC)cc1CNC(=O)CCl [C3-4] | 16% and 17.5% |
| 69.5 | 9.4 | – | – | – | COc1cc2c(cc1OC)CN(C(=O)CCl)CC2 [C5-17] | – |
| 32.3 | -1.7 | – | – | – | NC(=O)CCN(C(=O)CCl)c1ccccc1 [C4-3] | 70.6% and 71.9% |
| 10.4 | -2.4 | -12.1 | – | – | COc1cc(C(=O)NNC(=O)CCl)cc(OC)c1OC [C3-22] | – |
| 42.7 | 13.5 | 65.0 | – | – | CCC1(c2ccccc2)NC(=O)N(NC(=O)CCl)C1=O (stereo not shown) [C2-29] | – |
| 75 | 75.9 | 80.8 | 7.10 | – | CCOc1ccc(NC(=O)CCl)cc1S(=O)(=O)N1CCCCC1 [C1-30] | – |
| 93.2 | 47.9 | 52.0 | – | – | O=C(CCl)NCc1cc([N+](=O)[O-])ccc1O [C3-3] | – |
| 99.5 | 59.2 | 65.2 | 6.29 | – | CCOc1ccc(NC(=O)NC(=O)CCl)cc1OCC [C3-19] | – |
| 22.7 | 45.6 | 87.6 | – | – | O=C(CCl)Nc1ccc(OC(F)F)cc1 [C1-6] | – |
| 61.0 | 68.1 | – | 5.64 | – | CC1Cc2cc(S(N)(=O)=O)ccc2N1C(=O)CCl (stereo not shown) [C5-20] | 80.5% and 89.8% |
| 20.7 | 66.7 | 43.5 | – | – | CN(CCOc1ccc(Cl)cc1)C(=O)CCl [C4-9] | – |
| 26.4 | 76.0 | – | – | – | Cc1cc(C)c(-c2csc(NC(=O)CCl)n2)cc1C [C2-23] | – |
